Results on 12 compounds are retold here after US20240270821A1, “GIP/GLP1/GCG TRI-RECEPTOR AGONISTS AND USES THEREOF” (priority 2023, published 2024).

Where two headings read alike, the source gives them in different places. Starred links: 1 amine or outer side, 2 acyl side, 3 side chain; linkers in the order of their positions; H or OH if unused. Non-standard residues stand in square brackets, D forms with d. Residues, ends and D or L forms follow the SMILES beside them. Groups on a side chain read outwards from the residue. No end group written: not given here. *: point of attachment. C20 diacid = O=C(O)CCCCCCCCCCCCCCCCCCC(=O)*; C18 diacid = O=C(O)CCCCCCCCCCCCCCCCC(=O)*; αMePhe(2-F) = C[C@](N)(Cc1ccccc1F)C(=O)O; γGlu = O=C(O)[C@H](CCC(=O)[*:2])N[*:1]; αMe4Pal = C[C@](N)(Cc1ccncc1)C(=O)O; αMeY = C[C@](N)(Cc1ccc(O)cc1)C(=O)O; αMeF = C[C@](N)(Cc1ccccc1)C(=O)O; 4Pal = N[C@@H](Cc1ccncc1)C(=O)O; αMeL = CC(C)C[C@](C)(N)C(=O)O; αMeS = C[C@](N)(CO)C(=O)O; Orn = NCCC[C@H](N)C(=O)O; AEEA = NCCOCCOCC(=O)O; Aib = CC(C)(N)C(=O)O

What all share (format): cell-based
Assay [1] concerns the target T1, hGIPR (Homo sapiens, UniProt P48546).
T1 sequence (P48546 22-466): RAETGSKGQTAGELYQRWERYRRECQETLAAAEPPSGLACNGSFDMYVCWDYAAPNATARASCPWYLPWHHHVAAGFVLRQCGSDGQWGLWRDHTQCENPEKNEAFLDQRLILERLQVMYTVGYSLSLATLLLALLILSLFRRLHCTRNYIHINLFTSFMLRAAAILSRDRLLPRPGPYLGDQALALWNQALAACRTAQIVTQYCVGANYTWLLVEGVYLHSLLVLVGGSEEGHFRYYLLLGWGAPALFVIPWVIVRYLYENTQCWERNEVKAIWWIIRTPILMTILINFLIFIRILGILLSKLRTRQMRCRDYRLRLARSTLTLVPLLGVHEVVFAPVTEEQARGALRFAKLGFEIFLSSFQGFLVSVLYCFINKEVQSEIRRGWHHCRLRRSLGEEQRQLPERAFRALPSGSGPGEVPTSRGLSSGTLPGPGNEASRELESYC
The assay is described as follows: Functional cAMP activation in the presence of 0.1% casein (no HSA). The settings on record: read-out: Relative cAMP EC50, hGIPR.

Another assay deals with hGcgR (Homo sapiens, UniProt P47871). Described as above. The settings on record: read-out: Relative cAMP EC50, hGcgR.
The target in assay [2] is T2, hGLP-1R (Homo sapiens, UniProt P43220). The assay is described as above. The settings on record: read-out: Relative cAMP EC50, hGLP-1R.
The next assay addresses human GcgR (Homo sapiens, UniProt P47871). Briefly: Functional cAMP activity in the presence of 1% HSA. The settings on record: read-out: cAMP Rel EC50, hGcgR.
In assay [3] the target is T1, hGIPR. The assay is described as follows: Functional cAMP activity in the presence of 1% HSA. The settings on record: read-out: cAMP Rel EC50, hGIPR.
Assay [4] concerns the target T2, hGLP-1R. The assay is described as follows: Functional cAMP activity in the presence of 1% HSA. The settings on record: read-out: cAMP Rel EC50, hGLP-1R.
Where [5] appears, read: in the presence of 0.1% casein (no HSA), geometric mean.
Where [6] appears, read: in the presence of 0.1% casein (no HSA), geometric mean of relative EC50.
The mark [7] stands for this setting: HEK-293 clonal cell line, 1% HSA, geometric mean of relative EC50.
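Throughout, for Relative cAMP EC50, hGIPR: intracellular cAMP rise after 30 min at 37 °C read by HTRF against a standard curve, scaled between buffer alone (0%) and top control ligand concentration (100%), four-parameter fit.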
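Throughout, for Relative cAMP EC50, hGLP-1R: intracellular cAMP rise after 30 min at 37 °C read by HTRF, normalized between buffer only (0%) and maximal control ligand (100%), four-parameter variable-slope fit.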
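Throughout, for Relative cAMP EC50, hGcgR: intracellular cAMP rise after 30 min at 37 °C, read by HTRF against a cAMP standard curve, scaled from buffer only (0%) to maximal control ligand response (100%).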

Sequence of hGcgR (P47871 26-477): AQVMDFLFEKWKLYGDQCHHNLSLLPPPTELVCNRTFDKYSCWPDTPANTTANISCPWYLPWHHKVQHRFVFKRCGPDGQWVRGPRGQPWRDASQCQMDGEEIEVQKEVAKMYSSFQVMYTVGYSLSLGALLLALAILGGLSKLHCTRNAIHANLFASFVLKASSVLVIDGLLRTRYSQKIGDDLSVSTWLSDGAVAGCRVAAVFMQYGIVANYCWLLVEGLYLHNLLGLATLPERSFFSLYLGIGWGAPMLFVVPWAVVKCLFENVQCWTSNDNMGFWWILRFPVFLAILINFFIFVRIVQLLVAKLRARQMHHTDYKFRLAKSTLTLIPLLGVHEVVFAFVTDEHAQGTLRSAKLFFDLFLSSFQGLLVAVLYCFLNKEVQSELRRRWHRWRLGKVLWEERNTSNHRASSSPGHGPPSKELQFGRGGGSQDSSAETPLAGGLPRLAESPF
Sequence of human GcgR (P47871 26-477): as above
T2 sequence (P43220 24-463): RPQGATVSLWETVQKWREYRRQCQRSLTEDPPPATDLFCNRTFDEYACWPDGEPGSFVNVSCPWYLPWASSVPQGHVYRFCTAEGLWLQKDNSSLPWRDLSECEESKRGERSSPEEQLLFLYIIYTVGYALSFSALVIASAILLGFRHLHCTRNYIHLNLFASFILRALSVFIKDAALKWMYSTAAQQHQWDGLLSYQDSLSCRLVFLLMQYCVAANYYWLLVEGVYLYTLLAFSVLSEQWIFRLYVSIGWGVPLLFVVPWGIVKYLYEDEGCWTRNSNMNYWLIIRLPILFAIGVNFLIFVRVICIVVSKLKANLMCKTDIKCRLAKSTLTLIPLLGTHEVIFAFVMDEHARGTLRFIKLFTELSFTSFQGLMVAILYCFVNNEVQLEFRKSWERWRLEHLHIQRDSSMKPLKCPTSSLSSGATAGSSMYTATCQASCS

Take “H-Y[Aib]QGT[αMePhe(2-F)]TSD[4Pal][αMeS]I[αMeL]LD[Orn]K([AEEA-γGlu-C18 diacid])AQ[αMe4Pal]EFI[dE][αMeY]LVEGGPSSGEPPPSGTGE-NH2 [Example 734]”: the EC50 (commonly the concentration at which the effect is half-maximal) on hGIPR [1] stood at 0.0132 nM; on hGcgR, 2.08 nM; on hGLP-1R [2], 0.417 nM; at human GcgR, 230 nM; at hGIPR [3] it was 1.3 nM; at hGLP-1R [4] it was 38.1 nM.

As to “Y[Aib]QGTFTSDYSI[αMeL]LDKQAAK([AEEA-AEEA-γGlu-C20 diacid])QFIEYLIA[Aib]GPSSGEPPPSEG-NH2 [Example 349]”, the EC50 at hGIPR [1] (setting [5]) was determined as 0.152 nM; at hGcgR (setting [5]), 5.12 nM; at hGLP-1R [2] (setting [5]), 0.555 nM; at human GcgR, 2280 nM; at hGIPR [3] it was 52.6 nM; at hGLP-1R [4], 218 nM.

Consider “H-Y[Aib]QGT[αMeF]TSD[4Pal][αMeS]I[αMeL]LD[Orn]K([γGlu-γGlu-C18 diacid])AQ[αMe4Pal]EFI[dE][αMeY]LIEGGPSSGEPPPSGSE-NH2 [Example 1173]”, for which the EC50 was determined as 0.00943 nM at hGIPR [1] (setting [5]); 2.31 nM on hGcgR (setting [5]); 0.604 nM at hGLP-1R [2] (setting [5]); 254 nM on human GcgR; 0.764 nM at hGIPR [3]; 59.1 nM at hGLP-1R [4].

As to “H-Y[Aib]QGT[αMePhe(2-F)]TSD[4Pal]SILLDKK([γGlu-γGlu-C18 diacid])AQ[Aib]AFIEYLEEGGPSSGEPPPSGTGE-NH2 [Example 607]”, the EC50 on hGIPR [1] came to 0.0879 nM; on hGcgR, 8.91 nM; on hGLP-1R [2] it was 1.15 nM; on human GcgR it was 565 nM; at hGIPR [3], 6.63 nM; at hGLP-1R [4] it was 139 nM.

As to “H-Y[Aib]QGT[αMePhe(2-F)]TSD[4Pal]SI[αMeL]LDKK([γGlu-γGlu-C18 diacid])AQ[Aib][Orn]FIEYLQEGGPSSGEPPPEGSEE-NH2 [Example 653]”, the EC50 is 0.0303 nM at hGIPR [1] (setting [6]); 7.29 nM at hGcgR (setting [6]); 0.426 nM at hGLP-1R [2] (setting [6]); 542 nM on human GcgR (setting [7]); 1.38 nM at hGIPR [3] (setting [7]); 25 nM on hGLP-1R [4] (setting [7]).

For the compound `CC[C@H](C)[C@H](NC(=O)[C@H](Cc1ccccc1)NC(=O)[C@H](CCCN)NC(=O)C(C)(C)NC(=O)[C@H](CCC(N)=O)NC(=O)[C@H](C)NC(=O)[C@H](CCCCNC(=O)CC[C@H](NC(=O)CC[C@H](NC(=O)CCCCCCCCCCCCCCCCC(=O)O)C(=O)O)C(=O)O)NC(=O)[C@H](CCCN)NC(=O)[C@H](CC(=O)O)NC(=O)[C@H](CC(C)C)NC(=O)[C@](C)(CC(C)C)NC(=O)[C@@H](NC(=O)[C@](C)(CO)NC(=O)[C@H](Cc1ccncc1)NC(=O)[C@H](CC(=O)O)NC(=O)[C@H](CO)NC(=O)[C@@H](NC(=O)[C@](C)(Cc1ccccc1F)NC(=O)[C@@H](NC(=O)CNC(=O)[C@H](CCC(N)=O)NC(=O)C(C)(C)NC(=O)[C@@H](N)Cc1ccc(O)cc1)[C@@H](C)O)[C@@H](C)O)[C@@H](C)CC)C(=O)N[C@H](CCC(=O)O)C(=O)N[C@@](C)(Cc1ccc(O)cc1)C(=O)N[C@@H](CC(C)C)C(=O)N[C@@H](CO)C(=O)N[C@@H](CCC(=O)O)C(=O)NCC(=O)NCC(=O)N1CCC[C@H]1C(=O)N[C@@H](CO)C(=O)N[C@@H](CO)C(=O)NCC(=O)N[C@@H](CCC(=O)O)C(=O)N1CCC[C@H]1C(=O)N1CCC[C@H]1C(=O)N1CCC[C@H]1C(=O)N[C@@H](CCC(=O)O)C(N)=O` [Example 438] (H-Y[Aib]QGT[αMePhe(2-F)]TSD[4Pal][αMeS]I[αMeL]LD[Orn]K([γGlu-γGlu-C18 diacid])AQ[Aib][Orn]FI[dE][αMeY]LSEGGPSSGEPPPE-NH2), the EC50 was determined as 0.225 nM on hGIPR [1]; 3.62 nM at hGcgR; 0.815 nM on hGLP-1R [2]; 431 nM on human GcgR; 53.8 nM on hGIPR [3]; 41.1 nM at hGLP-1R [4].

As for `CC[C@H](C)[C@H](NC(=O)[C@H](CCCN)NC(=O)[C@H](CC(=O)O)NC(=O)[C@H](CC(C)C)NC(=O)[C@](C)(CC(C)C)NC(=O)[C@@H](NC(=O)[C@](C)(CO)NC(=O)[C@H](Cc1ccncc1)NC(=O)[C@H](CC(=O)O)NC(=O)[C@H](CO)NC(=O)[C@@H](NC(=O)[C@](C)(Cc1ccccc1F)NC(=O)[C@@H](NC(=O)CNC(=O)[C@H](CCC(N)=O)NC(=O)C(C)(C)NC(=O)[C@@H](N)Cc1ccc(O)cc1)[C@@H](C)O)[C@@H](C)O)[C@@H](C)CC)C(=O)N[C@@H](C)C(=O)N[C@@H](CCC(N)=O)C(=O)NC(C)(C)C(=O)N[C@@H](CCCN)C(=O)N[C@@H](Cc1ccccc1)C(=O)N[C@H](C(=O)N[C@H](CCC(=O)O)C(=O)N[C@@](C)(Cc1ccc(O)cc1)C(=O)N[C@@H](CC(C)C)C(=O)N[C@H](C(=O)N[C@@H](CCCCNC(=O)COCCOCCNC(=O)CC[C@H](NC(=O)CCCCCCCCCCCCCCCCC(=O)O)C(=O)O)C(=O)NCC(=O)NCC(=O)N1CCC[C@H]1C(=O)N[C@@H](CO)C(=O)N[C@@H](CO)C(=O)NCC(=O)N[C@@H](CCC(=O)O)C(=O)N1CCC[C@H]1C(=O)N1CCC[C@H]1C(=O)N1CCC[C@H]1C(=O)N[C@@H](CCC(=O)O)C(N)=O)[C@@H](C)CC)[C@@H](C)CC` [Example 444] (H-Y[Aib]QGT[αMePhe(2-F)]TSD[4Pal][αMeS]I[αMeL]LD[Orn]IAQ[Aib][Orn]FI[dE][αMeY]LIK([AEEA-γGlu-C18 diacid])GGPSSGEPPPE-NH2), the EC50 at hGIPR [1] was 0.0106 nM; at hGcgR, 6.49 nM; at hGLP-1R [2], 0.352 nM; at human GcgR, 1280 nM; at hGIPR [3], 1.74 nM; at hGLP-1R [4] it was 54.6 nM.

With “H-Y[Aib]QGTFTSDFS[Orn][αMeL]LDKK([AEEA-γGlu-C18 diacid])AQ[Aib]AFIEWLLEGGSSSGAPPPGGT-NH2 [Example 272]”, the EC50 worked out at 0.254 nM at hGIPR [1] (setting [5]); 7.91 nM on hGcgR (setting [5]); 2.62 nM at hGLP-1R [2] (setting [5]); 1540 nM at human GcgR; 36.3 nM on hGIPR [3]; 486 nM on hGLP-1R [4].

As to “H-Y[Aib]QGT[αMePhe(2-F)]TSDY[αMeS]I[αMeL]LD[Orn]K([AEEA-γGlu-C18 diacid])AQ[Aib][Orn]FI[dE][αMeY]LEEGGPSSGEPPPEEG-NH2 [Example 403]”, the EC50 on hGIPR [1] is 0.0827 nM; on hGcgR it was 1.59 nM; on hGLP-1R [2], 0.396 nM; at human GcgR it was 527 nM; at hGIPR [3], 36.9 nM; on hGLP-1R [4] it was 70 nM.

As for “H-Y[Aib]QGT[αMePhe(2-F)]TSD[4Pal]SILLD[Orn]K([γGlu-γGlu-C18 diacid])AQ[Aib]AFIE[αMeY]LEEGGPSSGAPPPSGTGE-NH2 [Example 665]”, the EC50 on hGIPR [1] was 0.0223 nM; at hGcgR, 2.94 nM; at hGLP-1R [2], 0.284 nM; on human GcgR, 285 nM; at hGIPR [3], 2.1 nM; at hGLP-1R [4], 32.8 nM.

For the compound “H-Y[Aib]QGTFTSD[4Pal]SQ[αMeL]LD[Orn]K([dE-γGlu-C18 diacid])AQ[αMe4Pal]QFIE[αMeY]LLAGGPSSGAPPPSGSEEE-NH2 [Example 1084]”, the EC50 on hGIPR [1] (setting [5]) is 0.0975 nM; at hGcgR (setting [5]), 11.5 nM; at hGLP-1R [2] (setting [5]), 10.3 nM; on human GcgR, 1390 nM; at hGIPR [3], 17.2 nM; on hGLP-1R [4], 761 nM.

On to “H-Y[Aib]QGT[αMePhe(2-F)]TSD[4Pal]SI[αMeL]LD[Orn]K([AEEA-γGlu-C18 diacid])AQ[αMe4Pal][Orn]FI[dE][αMeY]LIEGGPSSGDPPPETE-NH2 [Example 730]”, for which the EC50 turned out to be 0.0122 nM at hGIPR [1]; 2.46 nM at hGcgR; 0.248 nM on hGLP-1R [2]; 216 nM on human GcgR; 1.29 nM at hGIPR [3]; 33 nM on hGLP-1R [4].
